Experimental data published in patent EP2030621A1, “Novel substituted pyrimidines as cysteine protease inhibitors” (GLAXO GROUP LIMITED, priority 2007, dated 2009).
Counter-ions that a name gives are not always drawn. Like-named read-outs stand apart in the source and are kept apart here.

Legend:
[1] = tested on: Plasmodium falciparum parasite; test: Whole cell assay: whole cell activity against the parasite; type: cell-based; settings: Plasmodium falciparum
Falcipain-3 = Falcipain-3 (Plasmodium falciparum, UniProt Q8IIL0); test: Falcipain-3 enzymatic assay (fluorogenic peptide substrate, quenched endpoint read); type: biochemical
Description: (§1) 1 Determination of Falcipain-2, Falcipain-3, Vivapain-2, Cathepsin K Cathepsin S, Cathepsin L, and Cathepsin B proteolytic catalytic activity
(§2) Assays for Falcipain-2, Faicipain-3, and Vivapain-2 are carried out with parasitic recombinant enzymes. Cathepsins K, S, L, and B are carried out with human recombinant enzymes. Standard assay conditions for the determination of kinetic constants used a fluorogenic peptide substrate, typically H-D-VLR-AFC (Falcipain-2, Falcipain-3, Vivapain-2), Z-FR-AFC (Cathepsin K, L, B), or KQKLR-AMC (Cathepsin S) and are determined in 100 mM sodium acetate, pH 5.5, containing 10 mM DTT and 0.5 mM CHAPS (Falcipain-2, Falcipain-3, Vivapain-2), and 100 mM sodium acetate, pH 5.5, containing 5 mM L-cysteine, 1mM CHAPS and 5mM EDTA (Cathepsin K, L, B), or 50mM MES, pH 6.5, containing 0.5mM CHAPS, 10mM L-CYS, 5mM EDTA (Cathepsin S). Stock substrate solutions are prepared at 20 mM in DMSO. The activity assays contained 30 uM substrate (Falcipain-2, Falcipain-3, Vivapain-2), 20 uM substrate (Cathepsin K), 25uM substrate (Cathepsin B), 5uM substrate (Cathepsin L), and 30uM substrate (Cathepsin S). All assays contained 1% DMSO. […] All assays are conducted at ambient temperature as end point assays being quenched after 60 minutes with the exception of Cathepsin S at 90 minutes, with 16.6 uM E-64 in 1% DMSO. Product formation (AFC or AMC) is determined from fluorescence (excitation at 405nm; emission at 530nm, AFC, or excitation at 360 nm; emission at 460 nm, AMC) monitored with a LJL Aquest (Molecular Devices) fluorescent plate reader. In the case of kinetic reads (used in mechanism of action studies), the reaction is not quenched but is read in the plate reader every 3 minutes for approximately 90 minutes. In addition, the mechanism of action studies for Falcipain-2 utilize Z-LR-AMC as the substrate. Product formation is determined from the fluorescence of AMC, measured with a LJL Acquest (Molecular Devices) fluorescent plate reader (excitation at 360nm; emission at 460nm).
(§3) Potential inhibitors are evaluated using the quenched read (endpoint) method. Assays are carried out in the presence of variable concentrations of test compound. Reactions are initiated by addition of enzyme and substrate to wells containing inhibitor stamped in 100% DMSO. For endpoint assays, the reaction is quenched with the addition of E64. Dose response data is fit to an IC50 curve with preset fitting tools according to equation 1: y = a + (b-a)/(1 + (10^x /10^c ())^d ) [formula] where y is the response at a particular inhibitor concentration x, a is the minimum response value, b is the maximum response value, c is the IC50, and d is the slope of the IC50 curve. […]. For a more direct measurement of the KI and the binding mechanism, we performed mechanism of action studies that included a titration of substrate and inhibitor with a kinetic read. […]

Falcipain-2 = Falcipain-2 (Plasmodium falciparum, UniProt Q8I6U4); test: Falcipain-2 enzymatic assay (fluorogenic peptide substrate, quenched endpoint read); type: biochemical
Description: as §1, §2, §3

[2] = parasitic recombinant enzyme, 30 uM H-D-VLR-AFC, pH 5.5, quenched after 60 minutes, read-out: Falcipain-3 (IC50)
[3] = parasitic recombinant enzyme, 30 uM H-D-VLR-AFC, pH 5.5, quenched after 60 minutes, read-out: Falcipain-2 (IC50)

Falcipain-2, sequence (Q8I6U4 244-484): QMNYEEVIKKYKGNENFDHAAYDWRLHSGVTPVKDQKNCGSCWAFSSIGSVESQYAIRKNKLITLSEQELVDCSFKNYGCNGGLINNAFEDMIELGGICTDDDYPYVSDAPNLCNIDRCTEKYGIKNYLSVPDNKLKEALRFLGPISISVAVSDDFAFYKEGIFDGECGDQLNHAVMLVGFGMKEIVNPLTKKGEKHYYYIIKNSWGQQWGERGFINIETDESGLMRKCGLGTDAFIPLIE
Falcipain-3, sequence (Q8IIL0 243-492): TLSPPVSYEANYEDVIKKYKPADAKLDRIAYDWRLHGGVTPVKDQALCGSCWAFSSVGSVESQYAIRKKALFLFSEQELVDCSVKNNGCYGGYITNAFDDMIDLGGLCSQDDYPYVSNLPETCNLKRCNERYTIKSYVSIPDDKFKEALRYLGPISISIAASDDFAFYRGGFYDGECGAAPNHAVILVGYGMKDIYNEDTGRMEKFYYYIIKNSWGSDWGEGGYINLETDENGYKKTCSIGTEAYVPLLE

IC50 (Falcipain-3; [2]) [nM]	IC50 (Falcipain-2; [3]) [nM]	SMILES	IC50 [1] [nM]	IC50 (Falcipain-3) [nM]	IC50 (Falcipain-2) [nM]
–	–	CC(=O)N1CCC(N(NC(=O)c2ccc(CN3CCC(N4CCN(C)CC4)CC3)cc2)c2nc(C#N)ncc2Br)CC1 [Example 38, N'-(1-acetyl-4-piperidinyl)-N'-(5-bromo-2-cyano-4-pyrimidinyl)-4-{[4-(4-methyl-1-piperazinyl)-1-piperidinyl]methyl}benzohydrazide trifluoroacetate]	150 to 250	15 to 150	–
–	–	CN1CCN(Cc2ccc(C(=O)NN(c3nc(C#N)ncc3Br)C3CCCC3)cc2)CC1 [Example 1, N'-(5-bromo-2-cyano-4-pyrimidinyl)-N'-cyclopentyl-4-[(4-methyl-1-piperazinyl)methyl]benzohydrazide trifluoroacetate]	15 to 150	15 to 150	–
–	–	CN1CCN(Cc2ccc(C(=O)NN(c3nc(C#N)ncc3Cl)C3CCCC3)cc2)CC1 [Example 50, N'-(5-chloro-2-cyano-4-pyrimidinyl)-N'-cyclopentyl-4-[(4-methyl-1-piperazinyl)methyl]benzohydrazide trifluoroacetate]	15 to 150	–	1 to 2.5
–	–	CN1CCN(Cc2ccc(C(=O)NN(c3nc(C#N)ncc3Br)C3CCOCC3)cc2)CC1 [Example 42, N'-(5-bromo-2-cyano-4-pyrimidinyl)-4-[(4-methyl-1-piperazinyl)methyl]-N'-(tetrahydro-2H-pyran-4-yl)benzohydrazide trifluoroacetate]	15 to 150	–	1 to 2.5
2.5 to 15	< 1	CC(C)CCN(C)Cc1ccc(C(=O)NN(c2nc(C#N)ncc2Cl)C2CCCC2)cc1 [Example 63, N'-(5-chloro-2-cyano-4-pyrimidinyl)-N'-cyclopentyl-4-{[methyl(3-methylbutyl)amino]methyl}benzohydrazide trifluoroacetate]	2.5 to 15	–	–
–	–	CN1CCN(C2CCN(Cc3ccc(C(=O)NN(c4nc(C#N)ncc4Br)C4CCOCC4)cc3)CC2)CC1 [Example 29, N'-(5-Bromo-2-cyano-4-pyrimidinyl)-4-{[4-(4-methyl-1-piperazinyl)-1-piperidinyl]methyl}-N'-(tetrahydro-2H-pyran-4-yl)benzohydrazide trifluoroacetate]	15 to 150	15 to 150	–
–	–	CN1CCN(C(=O)C2CCN(Cc3ccc(C(=O)NN(c4nc(C#N)ncc4Cl)C4CCOCC4)cc3)CC2)CC1 [Example 36, N'-(5-Chloro-2-cyano-4-pyrimidinyl)-4-({4-[(4-methyl-1-piperazinyl)carbonyl]-1-piperidinyl}methyl)-N'-(tetrahydro-2H-pyran-4-yl)henzohydrazide trifluoroacetate]	15 to 150	–	1 to 2.5
15 to 150	< 1	CC(=O)N1CCC(N(NC(=O)c2ccc(CN3CCN(C)CC3)cc2)c2nc(C#N)ncc2Br)CC1 [Example 37, N'-(1-acetyl-4-piperidinyl)-N'-(5-bromo-2-cyano-4-pyrimidinyl)-4-[(4-methyl-1-piperazinyl)methyl]benzohydrazide trifluoroacetate]	15 to 150	–	–
–	–	CN1CCC(CN2CCN(Cc3cccc(C(=O)NN(c4nc(C#N)ncc4Br)C4CCCC4)c3)CC2)CC1 [Example 15, N'-(5-bromo-2-cyano-4-pyrimidinyl)-N'-cyclopentyl-3-({4-[(1-methyl-4-piperidinyl)methyl]-1-piperazinyl}methyl)benzohydrazide trifluoroacetate]	2.5 to 15	15 to 150	–
–	–	CN(CCCc1ccccc1)Cc1ccc(C(=O)NN(c2nc(C#N)ncc2Cl)C2CCCC2)cc1 [Example 64, N'-(5-chloro-2-cyano-4-pyrimidinyl)-N'-cyclopentyl-4-{[methyl(3-phenylpropyl)amino]methyl}benzohydrazide trifluoroacetate]	15 to 150	–	–
–	–	CN1CCCC(CN2CCN(Cc3ccc(C(=O)NN(c4nc(C#N)ncc4Br)C4CCCCC4)cc3)CC2)C1 (stereo not shown) [Example 25, N'-(5-bromo-2-cyano-4-pyrimidinyl)-N'-cyclohexyl-4-({4-[(1-methyl-3-piperidinyl)methyl]-1-piperazinyl}methyl)benzohydrazide trifluoroacetate]	2.5 to 15	–	–
